In patent US20200024278A1, “COMPOSITION COMPRISING ANTIBIOTIC COMPOUND AND AN HETEROCYCLIC COMPOUND AND THEIR USE IN PREVENTING OR TREATING BACTERIAL INFECTIONS” (MUTABILIS, priority 2016, published 2020):

Legend:
Assay in all cases: MIC, broth microdilution (CLSI), substance alone or ATB combined with compound at 4 or 8 μg/mL
SPN 49619 = type: cell-based, S. pneumoniae; details: SPN 49619; for MIC ATB combined with Example: Example @8 μg/ml; for MIC ATB combined with Example compound: compound @8 μg/ml
Summary of the method: (§1)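 Per CLSI-M7-A7, MICs are determined in cation-adjusted Mueller-Hinton broth with a final inoculum of 5·10^5 CFU/mL. Plates incubate 16-20 h at 35° C in air and are read by eye. Fosfomycin assays carry 25 μg/ml glucose-6-phosphate.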

ECO 190317 = type: cell-based, E. coli; details: ECO 190317; for MIC ATB combined with Example: Example @8 μg/ml
Summary of the method: as §1

ECO UFR39 = type: cell-based, E. coli; details: ECO UFR39; for MIC ATB combined with Example: Example @8 μg/ml; for MIC ATB combined with Example compound: compound @8 μg/ml
Summary of the method: as §1

SAU 29213 = type: cell-based, S. aureus; details: for MIC ATB combined with Example / MIC ATB combined with Example compound: SAU 29213; for MIC ATB combined with Example: Example @8 μg/ml; for MIC ATB combined with Example compound: compound @8 μg/ml
Summary of the method: as §1

PAE UFR90 = type: cell-based, P. aeruginosa; details: PAE UFR90, Example @8 μg/ml
Summary of the method: as §1

[1] = Escherichia coli, substance alone, read-out: MIC

Structure (SMILES): O=C1N2CC(n3cccn3)=CC(C2)N1OS(=O)(=O)[O-].[Na+] (stereo not shown) [Example 11, sodium (7-oxo-3-pyrazol-1-yl-1,6-diazabicyclo[3.2.1]oct-3-en-6-yl) sulfate]
- MIC ATB combined with Example (SPN 49619; ATB ATM): >32 µg/mL
- MIC ATB combined with Example (SPN 49619; ATB FEP): <=0.031 μg/mL
- MIC ATB combined with Example (SPN 49619; ATB FOS): 8 µg/mL
- MIC ATB combined with Example (SPN 49619; ATB MEM): <=0.031 μg/mL
- MIC ATB combined with Example (SPN 49619; ATB PIP): 0.5 µg/mL
- MIC ATB combined with Example compound (SPN 49619; MIC of CIP): <0.031 µg/mL
- MIC ATB combined with Example compound (SPN 49619; MIC of CLI): 0.0078 µg/mL
- MIC ATB combined with Example compound (SPN 49619; MIC of CPO): <=0.031 μg/mL
- MIC ATB combined with Example compound (SPN 49619; MIC of DAP): 0.125 µg/mL
- MIC ATB combined with Example compound (SPN 49619; MIC of ERY): 0.0078 µg/mL
- MIC ATB combined with Example compound (SPN 49619; MIC of LZD): 0.25 µg/mL
- MIC ATB combined with Example compound (SPN 49619; MIC of RIF): 0.002 µg/mL
- MIC ATB combined with Example compound (SPN 49619; MIC of SYN): 0.25 µg/mL
- MIC ATB combined with Example compound (SPN 49619; MIC of VAN): 0.031 µg/mL
- MIC (SPN 49619; Streptococcus pneumoniae, substance alone, read-out: MIC): 16 µg/mL
- MIC ATB combined with Example (ECO 190317; ATB ATM): <0.031 µg/mL
- MIC ATB combined with Example (ECO 190317; ATB FEP): <0.031 µg/mL
- MIC ATB combined with Example (ECO 190317; ATB FOS): <0.125 µg/mL
- MIC ATB combined with Example (ECO 190317; ATB MEM): <0.031 µg/mL
- MIC ATB combined with Example (ECO 190317; ATB PIP): <0.031 µg/mL
- MIC (ECO 190317; [1]): 1 µg/mL
- MIC ATB combined with Example compound (ECO 190317; MIC of CIP, compound @8 μg/ml): <0.031 µg/mL
- MIC ATB combined with Example (ECO UFR39; ATB ATM): <0.031 µg/mL
- MIC ATB combined with Example (ECO UFR39; ATB FEP): <0.031 µg/mL
- MIC ATB combined with Example (ECO UFR39; ATB FOS): <0.125 µg/mL
- MIC ATB combined with Example (ECO UFR39; ATB MEM): <0.031 µg/mL
- MIC ATB combined with Example (ECO UFR39; ATB PIP): <0.031 µg/mL
- MIC (ECO UFR39; [1]): 4 µg/mL
- MIC ATB combined with Example compound (ECO UFR39; MIC of CIP): <0.031 µg/mL
- MIC ATB combined with Example compound (ECO UFR39; MIC of CPO): <0.031 µg/mL
- MIC ATB combined with Example (SAU 29213; ATB ATM): >32 µg/mL
- MIC ATB combined with Example (SAU 29213; ATB FEP): 0.5 µg/mL
- MIC ATB combined with Example (SAU 29213; ATB FOS): <=0.125 μg/mL
- MIC ATB combined with Example (SAU 29213; ATB MEM): <=0.031 μg/mL
- MIC ATB combined with Example (SAU 29213; ATB PIP): 0.125 µg/mL
- MIC ATB combined with Example compound (SAU 29213; MIC of CIP): <=0.031 μg/mL
- MIC ATB combined with Example compound (SAU 29213; MIC of CLI): <1 ng/mL
- MIC ATB combined with Example compound (SAU 29213; MIC of CPO): <31 ng/mL
- MIC ATB combined with Example compound (SAU 29213; MIC of DAP): <=0.0020 μg/mL
- MIC ATB combined with Example compound (SAU 29213; MIC of ERY): <2 ng/mL
- MIC ATB combined with Example compound (SAU 29213; MIC of LZD): <7.8 ng/mL
- MIC ATB combined with Example compound (SAU 29213; MIC of RIF): 2 ng/mL
- MIC ATB combined with Example compound (SAU 29213; MIC of SYN): 125 ng/mL
- MIC ATB combined with Example compound (SAU 29213; MIC of VAN): <3.9 ng/mL
- MIC (SAU 29213; Staphylococcus aureus, substance alone, SAU 29213 (MSSA 29213), read-out: MIC): 8 µg/mL
- MIC ATB combined with Example (PAE UFR90; ATB ATM): 4 µg/mL
- MIC ATB combined with Example (PAE UFR90; ATB FEP): 2 µg/mL
- MIC ATB combined with Example (PAE UFR90; ATB FOS): 8 µg/mL
- MIC ATB combined with Example (PAE UFR90; ATB MEM): 1 µg/mL
